Test results published in paper PMC3512521, “Synthetic metabolic engineering-a novel, simple technology for designing a chimeric metabolic pathway” (Microbial Cell Factories, 2012).

Columns and labels:
Format in all cases: biochemical
[1] = molecular target: T1, FBA (fructose-bisphosphate aldolase) (Thermus thermophilus, UniProt Q5SHF7); assay: coupled assay, NAD+ reduction at […] nm; conditions: 0.1 mM substrate, 5 mM MgCl2, 0.5 mM MnCl2, pH 7.0, 50 °C
T1 construct: gene TTHA1773; heat-treated lysate of recombinant E. coli; native form, untagged; Riken HB8 expression plasmid
T1 sequence (Q5SHF7 1-305): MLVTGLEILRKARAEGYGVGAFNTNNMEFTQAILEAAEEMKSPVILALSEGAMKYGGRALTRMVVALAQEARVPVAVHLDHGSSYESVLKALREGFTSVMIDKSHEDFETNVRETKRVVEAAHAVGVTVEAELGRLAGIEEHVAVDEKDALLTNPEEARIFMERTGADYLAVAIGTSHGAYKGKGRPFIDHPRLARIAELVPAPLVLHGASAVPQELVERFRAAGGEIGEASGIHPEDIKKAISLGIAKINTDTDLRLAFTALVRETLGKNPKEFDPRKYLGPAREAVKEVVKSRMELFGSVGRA

[2] = molecular target: T2, Thermus lactate dehydrogenase (LDH) (Thermus thermophilus, UniProt Q5SJA1); assay: spectrophotometric NADH oxidation at […] nm; conditions: 0.2 mM pyruvate, 0.2 mM NADH, pH 7.0, 50 °C; inhibitor
T2 construct: heat-treated (70 °C, 30 min) lysate of recombinant E. coli; native form, untagged

[3] = molecular target: T3, PFK (6-phosphofructokinase) (Thermus thermophilus, UniProt P21777); assay: coupled assay, NAD+ reduction at […] nm; conditions: 0.1 mM substrate, 0.2 mM ATP, 5 mM MgCl2, 0.5 mM MnCl2, pH 7.0, 50 °C
T3 construct: gene pfkA; heat-treated lysate of recombinant E. coli; native form, untagged; Riken HB8 expression plasmid

[4] = molecular target: T4, malate/lactate dehydrogenase (MLDH) (Thermus thermophilus, UniProt Q53W84); assay: NADH oxidation at […] nm; conditions: 0.2 mM pyruvate, 0.2 mM NADH, 5 mM MgCl2, 0.5 mM MnCl2, pH 7.0, 50 °C
T4 construct: gene TTHB078; heat-treated lysate of recombinant E. coli; native form, untagged; Riken HB8 expression plasmid
T4 sequence (Q53W84 entry or part of it): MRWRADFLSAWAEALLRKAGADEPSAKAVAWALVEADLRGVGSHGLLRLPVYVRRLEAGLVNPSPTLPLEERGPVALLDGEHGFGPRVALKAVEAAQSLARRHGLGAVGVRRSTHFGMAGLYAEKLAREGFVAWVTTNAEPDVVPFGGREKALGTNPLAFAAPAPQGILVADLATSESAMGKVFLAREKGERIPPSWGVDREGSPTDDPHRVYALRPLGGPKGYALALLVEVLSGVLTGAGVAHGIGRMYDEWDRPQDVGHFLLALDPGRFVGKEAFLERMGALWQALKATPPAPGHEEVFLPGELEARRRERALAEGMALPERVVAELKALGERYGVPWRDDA

T3 sequence (P21777 whole entry): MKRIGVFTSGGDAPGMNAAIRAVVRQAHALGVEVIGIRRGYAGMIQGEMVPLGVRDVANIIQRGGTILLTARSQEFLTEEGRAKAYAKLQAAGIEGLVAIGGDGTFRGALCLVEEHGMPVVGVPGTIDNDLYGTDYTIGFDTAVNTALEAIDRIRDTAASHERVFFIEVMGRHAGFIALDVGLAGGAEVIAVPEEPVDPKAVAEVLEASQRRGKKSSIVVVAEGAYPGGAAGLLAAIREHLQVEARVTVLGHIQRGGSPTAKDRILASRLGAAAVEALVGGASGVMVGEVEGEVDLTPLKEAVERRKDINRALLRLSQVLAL
T2 sequence (Q5SJA1 whole entry): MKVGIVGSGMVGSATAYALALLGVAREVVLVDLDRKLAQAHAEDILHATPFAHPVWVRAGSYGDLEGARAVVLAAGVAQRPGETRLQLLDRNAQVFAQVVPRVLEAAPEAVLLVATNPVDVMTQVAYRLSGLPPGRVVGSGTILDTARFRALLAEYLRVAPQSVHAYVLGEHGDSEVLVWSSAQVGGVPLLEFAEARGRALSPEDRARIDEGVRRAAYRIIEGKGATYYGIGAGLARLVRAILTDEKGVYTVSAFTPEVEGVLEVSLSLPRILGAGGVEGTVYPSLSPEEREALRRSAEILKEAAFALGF

O=P(O)(O)OC[C@H]1OC(O)(COP(=O)(O)O)[C@@H](O)[C@@H]1O (stereo partly shown) [fructose-1,6-bisphosphate]
coupled assay, NAD+ reduction at 340 nm [1]: fructose-6-phosphate, fructose-1,6-bisphosphate, dihydroxyacetone phosphate

NC(=O)c1ccc[n+]([C@@H]2O[C@H](COP(=O)(O)OP(=O)(O)OC[C@H]3O[C@@H](n4cnc5c(N)ncnc54)[C@H](O)[C@@H]3O)[C@@H](O)[C@H]2O)c1 [NAD^+]
% decrease in activity at 1 mM [2]: 95%

Nc1ncnc2c1ncn2[C@@H]1O[C@H](COP(=O)(O)OP(=O)(O)OP(=O)(O)O)[C@@H](O)[C@H]1O [ATP]
coupled assay, NAD+ reduction at 340 nm [3]: phosphorylation of F6P catalyzed by PFK

CC(=O)C(=O)O [pyruvate]
NADH oxidation at 340 nm [4]: The enzyme was confirmed to show pyruvate reducing activity
